Results: publication PMC8248988, “A signal capture and proofreading mechanism for the KDEL-receptor explains selectivity and dynamic range in ER retrieval” (eLife, 2021)

Biological target: T1, human KDELR1 N54K/E117Q (Homo sapiens, UniProt P24390, E117Q/N54K)
T1 construct: expressed in transfected cells; host or cells: COS-7
Assay: ER retrieval assay, KDELR1 N54K/E117Q-GFP
Format: cell-based
Conditions: COS-7 cells
From the text: To create KDELR1-GFP and KDELR2-GFP, the reading frames for Homo sapiens KDELR1 (Uniprot: P24390) and KDELR2 (Uniprot: P33947) were cloned into the pEF5/FRT low level mammalian expression vector with a C-terminal 20 amino acid linker made up of 5 copies of Gly-Ser-Ser-Ser followed by GFP. Specific point mutations were introduced using the Quickchange protocol (Stratagene) and are described in the key resources table and figures. To create the mScarlet-KDEL^sec ligand construct, mScarlet with an N-terminal hGH signal peptide and the 16 C-terminal residues of human BiP at its C-terminus, containing the KDEL signal, was cloned into the pcDNA3.1 vector. […] The Golgi marker protein TGN46 was detected by antibody (sheep anti-TGN46 AHP500G; AbD Serotec) and an Alexa 647 conjugated secondary anti-sheep secondary (A-21448, Invitrogen). In Figure 1d and e, endogenous KDELR was detected by antibody (mouse anti-KDELR ADI-VAA-PT048; Enzo Life Sciences) and Alexa 488 conjugated anti-mouse secondary antibody (A-21202, Invitrogen). For retrieval assays in other figures, KDELR-GFP fusion proteins were directly detected by fluorescence. The mScarlet-xDEL fusion proteins were directly detected by fluorescence. […] The fraction of KDEL receptor in the Golgi apparatus was calculated by dividing the Golgi signal by the total cell signal. […]

T1 sequence (P24390 whole entry N54K/E117Q): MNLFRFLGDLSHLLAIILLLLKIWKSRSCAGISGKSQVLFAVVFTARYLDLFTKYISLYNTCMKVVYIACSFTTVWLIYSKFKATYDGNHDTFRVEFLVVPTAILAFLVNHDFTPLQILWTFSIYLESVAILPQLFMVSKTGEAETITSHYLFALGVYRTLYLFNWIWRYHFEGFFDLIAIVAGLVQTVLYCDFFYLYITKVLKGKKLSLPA

Substance: ADEL [pcDNA3.1 hGHss-mScarlet-H. sapiens BiP639-654K651A (ADEL^SEC), secreted mScarlet fusion with human BiP C-terminus, ADEL signal]
- ligand-induced receptor retrieval to the ER (in words): switched specificity towards ADEL and DDEL
